{"source": "patent US11957712B2", "about": "“Application of a hydrogel in the preparation of products for the treatment of bacterial infections” (Shaanxi University of Science & Technology, priority 2022, dated 2024)", "key": {"[1]": {"system": "Enterobacter sakazakii", "details": "16 μM ferrous sulfate, 12 h, FIG. 8B", "experimental": "(§1) Ferrous sulfate aqueous solutions were configured to a final concentration of 16 μM; and prepare 10^8 CFU/mL of Escherichia coli, Listeria monocytogenes, Vibrio Parahemolyticus, Enterobacter sakazakii, Staphylococcus aureus and MRSA. A 96-well plate assay was performed to determine the susceptibility of six pathogenic bacteria to ferrous sulfate, and after 12 h treatment, the total number of bacterial colonies was determined in a drop-plate assay to further investigate the effect of ferrous ions on their inhibition."}, "[2]": {"system": "Escherichia coli", "details": "16 μM ferrous sulfate, 12 h, FIG. 8B", "experimental": "as §1"}, "[3]": {"system": "Listeria monocytogenes", "details": "16 μM ferrous sulfate, 12 h, FIG. 8B", "experimental": "as §1"}, "[4]": {"system": "MRSA", "details": "16 μM ferrous sulfate, 12 h, 10^8 CFU/mL", "experimental": "as §1"}, "[5]": {"system": "Staphylococcus aureus", "details": "16 μM ferrous sulfate, 12 h, 10^8 CFU/mL", "experimental": "as §1"}, "[6]": {"system": "Vibrio Parahemolyticus", "details": "16 μM ferrous sulfate, 12 h, FIG. 8B", "experimental": "as §1"}, "[7]": {"system": "S. aureus", "experimental": "Ferrous sulfate aqueous solutions were configured to final concentrations of 1, 4, 16, and 64 μM, respectively, and ampicillin and vancomycin as positive controls were configured to 100 μg/mL, as well as ultrapure water without ferrous sulfate was set as a blank control group. Then 10^8 CFU/mL of S. aureus and MRSA were prepared. The cell suspensions were added with FeSO4 at final concentrations of 0, 1, 4, 16, 64 μM, respectively, and incubated at 37° C. 200 rpm for 12 h. […] After incubation, S. aureus cells were collected by centrifugation, suspended in 1 mL of normal saline solution, and subjected to 10-fold serial dilutions. Finally, 6 dilutions of each condition were plated on TSB agar, and the colony form units (CFU) were enumerated after incubation at 37° C. overnight."}, "[8]": {"system": "Staphylococcus aureus", "details": "100 μM, 12 h treatment, approximately 10^8 CFU/mL", "description": "To verify the antibacterial activity of ferrous ions against Staphylococcus aureus, the following tests were done: • 1. […] 96-well plate method was used to test the drug sensitivity of 9 ferrous salts against Staphylococcus aureus (approximately 10^8 CFU/mL). After 12 h treatment, the total number of bacterial colonies was determined followed by drop plate method to further investigate the antibacterial effect of iron ions on Staphylococcus aureus."}}}
{"substance": "ferrous sulfate", "values": [{"measurement": "bactericidal effect", "setting": "[1]", "value": "strong bactericidal effect"}, {"measurement": "bactericidal effect", "setting": "[2]", "value": "strong bactericidal effect"}, {"measurement": "bactericidal effect", "setting": "[3]", "value": "strong bactericidal effect"}, {"measurement": "survival of MRSA", "setting": "[4]", "value": "less than 0.01%"}, {"measurement": "survival rate of S. aureus", "setting": "[5]", "value": "less than 0.001%"}, {"measurement": "bactericidal effect", "setting": "[6]", "value": "strong bactericidal effect"}, {"measurement": "MBC (lowest concentration required to kill 99.99% cells of S. aureus)", "setting": "[7]; 37° C., 200 rpm, 12 h, 10^8 CFU/mL", "value": 16, "unit": "µM"}, {"measurement": "bactericidal rate", "setting": "[7]; at 16 μM (MBC)", "value": 99.99, "unit": "%"}, {"measurement": "inhibition of the growth of S. aureus", "setting": "[8]", "value": "~100", "unit": "%"}]}
